Experimental data as given in ChEMBL document CHEMBL1201862, “PubChem BioAssay data set” (2004).
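Cells were grown in 96-well plates and exposed to each compound for 48 hours at five concentrations; endpoints were interpolated linearly between bracketing concentrations, or set to the highest concentration if not reached. GI50: concentration for 50% inhibition of growth.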 The source made the active and inactive calls. Cut-off read from the data, not from the text of the source: active = GI50 up to about 1.1 µM and inactive = higher. Square brackets hold non-standard residues; d marks the D form. Peptide text beside a SMILES is read from it. * marks the point of attachment. ξ: configuration not given here. ξF = NC(Cc1ccccc1)C(=O)O; Cbz = O=C(OCc1ccccc1)*; Aib = CC(C)(N)C(=O)O

Key:
Experiment in all cases: inhibition of tumour cell growth, NCI panel, 48 h
SK-MEL-5 = test system: SK-MEL-5
Malme-3M = test system: Malme-3M
HT-29 = test system: HT-29
NCI-H460 = test system: NCI-H460
CAKI-1 = test system: CAKI-1
OVCAR-3 = test system: OVCAR-3
HCT-116 = test system: HCT-116
EKVX = test system: EKVX
U-251 = test system: U-251
SNB-75 = test system: SNB-75
UO-31 = test system: UO-31
MDA-MB-231 = test system: MDA-MB-231
CCRF-CEM = test system: CCRF-CEM
HOP-92 = test system: HOP-92
A549 = test system: A549
SW-620 = test system: SW-620
NCI-H23 = test system: NCI-H23
BT-549 = test system: BT-549
KM12 = test system: KM12
MOLT-4 = test system: MOLT-4

Compound | GI50 (SK-MEL-5) | GI50 (Malme-3M) | GI50 (HT-29) | GI50 (NCI-H460) | GI50 (CAKI-1) | GI50 (OVCAR-3) | GI50 (HCT-116) | GI50 (EKVX) | GI50 (U-251) | GI50 (SNB-75) | GI50 (UO-31) | GI50 (MDA-MB-231) | GI50 (CCRF-CEM) | GI50 (HOP-92) | GI50 (A549) | GI50 (SW-620) | GI50 (NCI-H23) | GI50 (BT-549) | GI50 (KM12) | GI50 (MOLT-4)
CCOC(=O)c1c2c(n(-c3ccc(OC)cc3)c1C)C(=O)C(=O)c1ccccc1-2 | 1.06 µM (active) | 0.241 µM (active) | 2.34 µM (inactive) | 1.43 µM (inactive) | 1.42 µM (inactive) | 0.419 µM (active) | 1.33 µM (inactive) | 2.01 µM (inactive) | 1.22 µM (inactive) | 2.16 µM (inactive) | 2.12 µM (inactive) | 1.29 µM (inactive) | 1.27 µM (inactive) | 1.85 µM (inactive) | 1.51 µM (inactive) | 1.24 µM (inactive) | 0.873 µM (active) | 2.02 µM (inactive) | 1.82 µM (inactive) | 
COC(=O)C1=C(C)NC2=C(C(=O)c3ccccc32)C1c1c[nH]nc1-c1ccccc1 (stereo not given) | 31.8 µM (inactive) | 25.2 µM (inactive) | 24.3 µM (inactive) | 51.9 µM (inactive) | 63.8 µM (inactive) | 48.6 µM (inactive) | > 100 µM (inactive) | 16.1 µM (inactive) | 72.1 µM (inactive) | 13.3 µM (inactive) | > 100 µM (inactive) | 30.1 µM (inactive) | 40.3 µM (inactive) | > 100 µM (inactive) | 47.6 µM (inactive) | 59.3 µM (inactive) | > 100 µM (inactive) | > 100 µM (inactive) | 86.7 µM (inactive) | 24.8 µM (inactive)
Nc1ncnc2c1ccn2C1OC2COP(=O)(O)OC2C1O (stereo not given) | 0.327 µM (active) | 0.27 µM (active) | 0.137 µM (active) | 0.168 µM (active) | 0.0904 µM (active) | 0.275 µM (active) | 0.17 µM (active) | 2.64 µM (inactive) | 0.31 µM (active) | 0.231 µM (active) | 0.196 µM (active) | 0.33 µM (active) | 0.773 µM (active) | 0.462 µM (active) | 0.365 µM (active) | 0.261 µM (active) | 0.885 µM (active) | 0.482 µM (active) | 0.363 µM (active) | 0.681 µM (active)
COC(=O)CCc1ccc2c(c1)CCC2 | > 100 µM (inactive) | > 100 µM (inactive) | > 100 µM (inactive) | > 100 µM (inactive) | > 100 µM (inactive) | > 100 µM (inactive) | > 100 µM (inactive) |  | > 100 µM (inactive) | > 100 µM (inactive) | > 100 µM (inactive) | > 100 µM (inactive) | > 100 µM (inactive) | 15.1 µM (inactive) | > 100 µM (inactive) | > 100 µM (inactive) | > 100 µM (inactive) | > 100 µM (inactive) | > 100 µM (inactive) | > 100 µM (inactive)
Cn1c2c(c3c(=O)[nH]ncc31)CCc1ccccc1-2 | 17.8 µM (inactive) | 31.3 µM (inactive) | 32.6 µM (inactive) | 16 µM (inactive) | 32.1 µM (inactive) | 26.4 µM (inactive) | 20.1 µM (inactive) | 12.9 µM (inactive) | 33.5 µM (inactive) | 21.2 µM (inactive) | 22.5 µM (inactive) | 21.1 µM (inactive) | 20.8 µM (inactive) | 44.8 µM (inactive) | 29.1 µM (inactive) | 34.1 µM (inactive) | 26.1 µM (inactive) | 23.8 µM (inactive) | 23 µM (inactive) | 21.8 µM (inactive)
Cc1nc2c(Cl)cc(Cl)cc2c2c1CCO2 | > 100 µM (inactive) | > 100 µM (inactive) | > 100 µM (inactive) | > 100 µM (inactive) | 23.3 µM (inactive) |  | > 100 µM (inactive) | 54 µM (inactive) | > 100 µM (inactive) | 60.8 µM (inactive) | 67 µM (inactive) | > 100 µM (inactive) | 48.4 µM (inactive) | 73.1 µM (inactive) | > 100 µM (inactive) | > 100 µM (inactive) | > 100 µM (inactive) | > 100 µM (inactive) | > 100 µM (inactive) | 75.3 µM (inactive)
O=c1c2ncn(C3CC(O)C(CO)O3)c2nnn1Cc1ccccc1[N+](=O)[O-] (stereo not given) | > 100 µM (inactive) | > 100 µM (inactive) | > 100 µM (inactive) | > 100 µM (inactive) | > 100 µM (inactive) | 75 µM (inactive) | > 100 µM (inactive) | > 100 µM (inactive) | > 100 µM (inactive) | > 100 µM (inactive) | > 100 µM (inactive) | > 100 µM (inactive) | > 100 µM (inactive) | 57.8 µM (inactive) | > 100 µM (inactive) | > 100 µM (inactive) | > 100 µM (inactive) | > 100 µM (inactive) | > 100 µM (inactive) | 29.4 µM (inactive)
C=C(CN(C)C)C(=O)c1ccc(C)cc1C | 14.1 µM (inactive) | 5.7 µM (inactive) | 7.66 µM (inactive) | 18.8 µM (inactive) | 3.09 µM (inactive) | 7.87 µM (inactive) | 5.61 µM (inactive) | 12.9 µM (inactive) | 16.9 µM (inactive) | 16.5 µM (inactive) | 12.2 µM (inactive) | 13.3 µM (inactive) | 0.574 µM (active) | 3.74 µM (inactive) | 32.2 µM (inactive) | 2.74 µM (inactive) | 10.6 µM (inactive) | 3.59 µM (inactive) | 15.9 µM (inactive) | 1.01 µM (active)
CC(C)CCCC(C)[C@H]1CC[C@H]2N/C(=N/c3ccccc3)CCC[C@]12C (stereo not given in full) | 1.27 µM (inactive) | 2.67 µM (inactive) | 0.501 µM (active) | 1.93 µM (inactive) | 2.29 µM (inactive) | 2.29 µM (inactive) | 2.28 µM (inactive) |  | 1.82 µM (inactive) | 1.88 µM (inactive) | 1.62 µM (inactive) | 1.14 µM (inactive) | 2.51 µM (inactive) | 2.97 µM (inactive) | 2.81 µM (inactive) | 3.21 µM (inactive) | 1.72 µM (inactive) | 2.9 µM (inactive) | 2.43 µM (inactive) | 1.64 µM (inactive)
O=c1cc(-c2ccccc2)[nH]c2ccc(N3CCCC3)cc12 | 0.0366 µM (active) | > 100 µM (inactive) | 0.0146 µM (active) | 0.0275 µM (active) | < 0.0175 µM (active) | 0.0272 µM (active) | < 0.0113 µM (active) |  | 0.0102 µM (active) | 40.6 µM (inactive) | > 100 µM (inactive) | 0.103 µM (active) | < 0.0149 µM (active) | 0.037 µM (active) | 0.0555 µM (active) | < 0.01 µM (active) | 0.299 µM (active) | > 100 µM (inactive) | 0.039 µM (active) | 0.0794 µM (active)
O=C(Nc1ccc(Cl)cc1)[C-](C(=O)c1ccc(Br)cc1)[n+]1cccc(-c2ccc(Cl)cc2)n1 | 3.18 µM (inactive) | 2.86 µM (inactive) |  | 3.44 µM (inactive) | 2.56 µM (inactive) | 2.92 µM (inactive) | 3.09 µM (inactive) | 3.49 µM (inactive) | 3.87 µM (inactive) | 6.49 µM (inactive) | 5.87 µM (inactive) | 31.2 µM (inactive) |  | 3.61 µM (inactive) | 3.72 µM (inactive) | 4.3 µM (inactive) | 2.37 µM (inactive) | 2.54 µM (inactive) | 3.1 µM (inactive) | 5.05 µM (inactive)
O=C(c1cc(Cl)ccc1Cl)N1CCN(c2ccc(Cl)c(Cl)c2)CC1 | 14.6 µM (inactive) | 17.9 µM (inactive) | 22.8 µM (inactive) | 17 µM (inactive) | 35.8 µM (inactive) | 31.4 µM (inactive) | 21 µM (inactive) | 37.2 µM (inactive) | 27.2 µM (inactive) | 31.1 µM (inactive) | 14.8 µM (inactive) | 29.1 µM (inactive) | 41.6 µM (inactive) | 54.2 µM (inactive) | 26.9 µM (inactive) | 49.1 µM (inactive) | 33.5 µM (inactive) | 25.2 µM (inactive) | 16 µM (inactive) | 20.6 µM (inactive)
Cn1c(=O)c2[nH]c(N/N=C3/SCC(=O)N3Cc3ccccc3)nc2n(C)c1=O | 34.9 µM (inactive) | 52.5 µM (inactive) | 48.9 µM (inactive) | > 100 µM (inactive) | > 100 µM (inactive) | 74.5 µM (inactive) | 45.4 µM (inactive) | 42.1 µM (inactive) | 55.3 µM (inactive) |  | > 100 µM (inactive) | 51.9 µM (inactive) | 22.1 µM (inactive) | 15.7 µM (inactive) | > 100 µM (inactive) |  | 71.9 µM (inactive) | > 100 µM (inactive) | 48.2 µM (inactive) | 29 µM (inactive)
CC(C)(NC(=O)OCc1ccccc1)C(=O)NC(Cc1ccccc1)C(=O)O (stereo not given) (Cbz-[Aib]-[ξF]-OH) | > 100 µM (inactive) | > 100 µM (inactive) | > 100 µM (inactive) | > 100 µM (inactive) | > 100 µM (inactive) | > 100 µM (inactive) | > 100 µM (inactive) |  | > 100 µM (inactive) | > 100 µM (inactive) | > 100 µM (inactive) | > 100 µM (inactive) | > 100 µM (inactive) | > 100 µM (inactive) | > 100 µM (inactive) | > 100 µM (inactive) | > 100 µM (inactive) | > 100 µM (inactive) | > 100 µM (inactive) | > 100 µM (inactive)
